Where two headings read alike, the source gives them in different places.
What was measured:
5-HT2C = biological target: T1, 5-HT2C (Homo sapiens, UniProt P28335); test: Radioligand binding
T1 sequence (P28335 33-458): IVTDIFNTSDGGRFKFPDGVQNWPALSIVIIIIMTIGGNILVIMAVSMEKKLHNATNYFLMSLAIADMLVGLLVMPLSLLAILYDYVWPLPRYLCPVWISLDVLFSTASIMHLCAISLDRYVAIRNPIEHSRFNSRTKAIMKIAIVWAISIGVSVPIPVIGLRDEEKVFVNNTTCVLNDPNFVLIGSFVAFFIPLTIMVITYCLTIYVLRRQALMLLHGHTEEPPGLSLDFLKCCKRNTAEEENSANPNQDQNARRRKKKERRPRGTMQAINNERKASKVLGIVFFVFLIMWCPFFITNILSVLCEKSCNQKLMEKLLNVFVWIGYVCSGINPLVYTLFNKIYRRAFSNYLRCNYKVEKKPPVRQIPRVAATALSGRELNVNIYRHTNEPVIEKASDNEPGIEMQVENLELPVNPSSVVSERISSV

NET = NET (Homo sapiens, UniProt P23975); test: Radioligand binding
D3 = D3 (Homo sapiens, UniProt P35462); test: Radioligand binding
Sequence of D3 (P35462 whole entry): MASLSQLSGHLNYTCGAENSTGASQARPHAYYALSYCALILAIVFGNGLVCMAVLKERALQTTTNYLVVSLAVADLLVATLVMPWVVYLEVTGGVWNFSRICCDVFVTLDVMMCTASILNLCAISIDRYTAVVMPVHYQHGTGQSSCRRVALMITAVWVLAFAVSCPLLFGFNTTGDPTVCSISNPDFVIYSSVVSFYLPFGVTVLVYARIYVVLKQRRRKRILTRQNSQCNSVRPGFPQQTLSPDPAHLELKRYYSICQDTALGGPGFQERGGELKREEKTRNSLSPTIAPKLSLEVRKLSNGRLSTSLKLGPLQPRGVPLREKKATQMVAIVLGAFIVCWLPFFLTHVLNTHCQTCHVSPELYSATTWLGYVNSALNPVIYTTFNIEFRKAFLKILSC

SERT [1] = biological target: SERT (Rattus norvegicus, UniProt P31652); test: SERT-mediated release of [3H]5-HT from rat brain synaptosomes; type: biochemical; details: for Emax: read-out: SERT-mediated release Emax
rats = details: drug discrimination, cited from earlier work
β3 = β3 (Homo sapiens, UniProt P13945); test: Radioligand binding
Sequence of β3 (P13945 whole entry): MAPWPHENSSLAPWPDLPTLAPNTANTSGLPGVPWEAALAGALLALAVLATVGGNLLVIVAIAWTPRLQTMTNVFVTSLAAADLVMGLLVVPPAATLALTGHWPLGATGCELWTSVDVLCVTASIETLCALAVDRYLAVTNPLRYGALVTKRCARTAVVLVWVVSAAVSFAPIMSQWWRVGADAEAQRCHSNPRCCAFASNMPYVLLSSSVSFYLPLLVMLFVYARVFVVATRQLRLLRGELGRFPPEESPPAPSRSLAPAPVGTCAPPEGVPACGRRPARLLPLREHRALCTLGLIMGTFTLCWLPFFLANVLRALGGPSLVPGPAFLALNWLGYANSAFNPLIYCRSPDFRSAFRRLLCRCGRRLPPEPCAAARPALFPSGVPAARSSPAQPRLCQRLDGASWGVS

DAT = DAT (Homo sapiens, UniProt Q01959); test: Radioligand binding
α2C = biological target: T2, α2C (Homo sapiens, UniProt P18825); test: Radioligand binding; details: for fold lower affinity for α2C compared to 2-AI: binding, [3H]rauwolscine
T2 sequence (P18825 1-462): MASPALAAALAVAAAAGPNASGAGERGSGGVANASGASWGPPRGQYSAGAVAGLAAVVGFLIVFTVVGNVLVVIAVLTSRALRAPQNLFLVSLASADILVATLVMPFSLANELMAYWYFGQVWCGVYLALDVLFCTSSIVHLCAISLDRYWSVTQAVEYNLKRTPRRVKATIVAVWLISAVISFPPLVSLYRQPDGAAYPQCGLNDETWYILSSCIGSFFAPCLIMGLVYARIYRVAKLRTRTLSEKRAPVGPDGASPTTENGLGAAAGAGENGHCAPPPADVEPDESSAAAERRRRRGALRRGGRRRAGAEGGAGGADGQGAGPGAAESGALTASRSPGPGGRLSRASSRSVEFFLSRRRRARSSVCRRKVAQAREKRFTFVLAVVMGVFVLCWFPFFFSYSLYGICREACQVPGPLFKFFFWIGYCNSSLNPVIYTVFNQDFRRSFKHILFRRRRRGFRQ

α2A = biological target: T3, α2A (Homo sapiens, UniProt P08913); test: Radioligand binding; details: for fold lower affinity for α2A compared to 2-AI: binding, [3H]rauwolscine
T3 sequence (P08913 1-465): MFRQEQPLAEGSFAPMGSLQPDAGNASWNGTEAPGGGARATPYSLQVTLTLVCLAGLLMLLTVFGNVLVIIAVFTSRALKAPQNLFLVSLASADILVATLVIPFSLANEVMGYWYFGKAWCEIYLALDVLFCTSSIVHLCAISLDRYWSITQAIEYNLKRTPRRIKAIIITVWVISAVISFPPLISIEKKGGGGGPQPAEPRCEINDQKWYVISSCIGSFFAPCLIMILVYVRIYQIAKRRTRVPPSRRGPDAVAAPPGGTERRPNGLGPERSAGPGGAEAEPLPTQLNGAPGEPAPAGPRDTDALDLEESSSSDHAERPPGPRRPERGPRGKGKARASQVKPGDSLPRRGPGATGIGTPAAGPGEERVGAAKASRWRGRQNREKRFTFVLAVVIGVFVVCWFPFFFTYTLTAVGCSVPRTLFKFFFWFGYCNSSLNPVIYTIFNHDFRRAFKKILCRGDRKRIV

D1 = D1 (Homo sapiens, UniProt P21728); test: Radioligand binding
Sequence of D1 (P21728 whole entry): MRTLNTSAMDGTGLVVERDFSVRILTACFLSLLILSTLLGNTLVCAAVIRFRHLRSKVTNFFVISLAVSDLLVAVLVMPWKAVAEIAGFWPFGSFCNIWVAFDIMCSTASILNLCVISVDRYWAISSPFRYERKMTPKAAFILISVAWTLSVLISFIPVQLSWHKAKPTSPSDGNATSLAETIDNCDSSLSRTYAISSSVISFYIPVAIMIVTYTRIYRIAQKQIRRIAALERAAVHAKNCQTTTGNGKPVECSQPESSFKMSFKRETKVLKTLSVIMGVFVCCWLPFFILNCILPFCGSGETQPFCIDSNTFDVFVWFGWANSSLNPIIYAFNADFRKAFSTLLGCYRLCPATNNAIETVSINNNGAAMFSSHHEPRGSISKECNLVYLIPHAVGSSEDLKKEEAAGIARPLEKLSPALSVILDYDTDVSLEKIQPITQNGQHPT

SERT [2] = biological target: SERT (Homo sapiens, UniProt P31645); test: Radioligand binding
Sequence of SERT (Homo sapiens, UniProt P31645) (P31645 whole entry): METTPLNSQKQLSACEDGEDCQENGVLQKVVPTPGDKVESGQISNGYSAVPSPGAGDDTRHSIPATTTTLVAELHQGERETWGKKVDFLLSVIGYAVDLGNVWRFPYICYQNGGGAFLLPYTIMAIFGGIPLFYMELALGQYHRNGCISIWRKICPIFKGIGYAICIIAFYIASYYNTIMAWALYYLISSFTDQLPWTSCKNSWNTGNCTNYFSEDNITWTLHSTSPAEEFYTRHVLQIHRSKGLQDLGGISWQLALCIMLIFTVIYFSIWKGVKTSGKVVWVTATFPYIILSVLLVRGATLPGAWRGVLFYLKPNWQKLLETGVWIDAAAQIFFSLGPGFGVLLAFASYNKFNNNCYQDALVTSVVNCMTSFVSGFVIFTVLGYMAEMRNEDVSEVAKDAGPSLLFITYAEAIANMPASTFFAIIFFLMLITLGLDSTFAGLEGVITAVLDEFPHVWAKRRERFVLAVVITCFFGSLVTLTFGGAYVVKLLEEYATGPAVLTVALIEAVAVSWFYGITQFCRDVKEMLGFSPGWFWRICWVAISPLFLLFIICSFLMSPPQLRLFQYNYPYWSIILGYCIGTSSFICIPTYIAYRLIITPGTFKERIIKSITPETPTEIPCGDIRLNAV

5-HT7 = 5-HT7 (Homo sapiens, UniProt P34969); test: Radioligand binding
5-HT6 = 5-HT6 (Homo sapiens, UniProt P50406); test: Radioligand binding
Sequence of 5-HT6 (P50406 whole entry): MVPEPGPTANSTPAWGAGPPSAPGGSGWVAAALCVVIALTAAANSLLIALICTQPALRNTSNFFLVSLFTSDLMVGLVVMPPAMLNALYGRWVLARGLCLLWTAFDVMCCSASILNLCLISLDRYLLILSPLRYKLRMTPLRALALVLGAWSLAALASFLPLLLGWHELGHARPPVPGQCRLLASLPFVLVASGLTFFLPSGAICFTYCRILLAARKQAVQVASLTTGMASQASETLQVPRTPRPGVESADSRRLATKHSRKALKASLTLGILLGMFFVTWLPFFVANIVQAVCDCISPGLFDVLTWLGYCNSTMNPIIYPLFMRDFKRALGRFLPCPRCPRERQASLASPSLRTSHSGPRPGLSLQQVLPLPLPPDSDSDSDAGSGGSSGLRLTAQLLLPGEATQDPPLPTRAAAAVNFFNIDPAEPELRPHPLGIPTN

β1 = β1 (Homo sapiens, UniProt P08588); test: Radioligand binding
Sequence of β1 (P08588 whole entry): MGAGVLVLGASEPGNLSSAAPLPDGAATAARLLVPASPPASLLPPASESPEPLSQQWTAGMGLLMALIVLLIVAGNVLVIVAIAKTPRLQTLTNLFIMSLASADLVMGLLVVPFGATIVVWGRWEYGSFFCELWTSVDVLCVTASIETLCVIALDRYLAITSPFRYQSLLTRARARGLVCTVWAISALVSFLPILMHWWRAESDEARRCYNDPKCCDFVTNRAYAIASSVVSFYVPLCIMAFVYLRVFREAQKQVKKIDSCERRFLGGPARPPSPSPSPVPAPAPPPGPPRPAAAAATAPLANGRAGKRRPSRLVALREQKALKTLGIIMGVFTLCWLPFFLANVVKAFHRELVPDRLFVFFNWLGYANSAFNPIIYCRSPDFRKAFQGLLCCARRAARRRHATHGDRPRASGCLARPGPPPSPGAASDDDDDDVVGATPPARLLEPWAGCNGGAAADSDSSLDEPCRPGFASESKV

5-HT1D = 5-HT1D (Homo sapiens, UniProt P28221); test: Radioligand binding
Sequence of 5-HT1D (P28221 whole entry): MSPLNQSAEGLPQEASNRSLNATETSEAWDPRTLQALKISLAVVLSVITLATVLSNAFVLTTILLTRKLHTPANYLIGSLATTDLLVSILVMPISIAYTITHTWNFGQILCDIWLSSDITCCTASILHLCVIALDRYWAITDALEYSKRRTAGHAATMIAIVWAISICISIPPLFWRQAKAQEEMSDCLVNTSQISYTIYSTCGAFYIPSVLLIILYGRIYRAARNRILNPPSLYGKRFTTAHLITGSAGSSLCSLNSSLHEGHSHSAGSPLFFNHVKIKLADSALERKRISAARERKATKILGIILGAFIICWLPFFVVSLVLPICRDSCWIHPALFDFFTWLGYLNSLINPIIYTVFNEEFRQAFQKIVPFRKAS

D4 = biological target: T4, D4 (Homo sapiens, UniProt P21917); test: Radioligand binding
T4 sequence (P21917 1-419): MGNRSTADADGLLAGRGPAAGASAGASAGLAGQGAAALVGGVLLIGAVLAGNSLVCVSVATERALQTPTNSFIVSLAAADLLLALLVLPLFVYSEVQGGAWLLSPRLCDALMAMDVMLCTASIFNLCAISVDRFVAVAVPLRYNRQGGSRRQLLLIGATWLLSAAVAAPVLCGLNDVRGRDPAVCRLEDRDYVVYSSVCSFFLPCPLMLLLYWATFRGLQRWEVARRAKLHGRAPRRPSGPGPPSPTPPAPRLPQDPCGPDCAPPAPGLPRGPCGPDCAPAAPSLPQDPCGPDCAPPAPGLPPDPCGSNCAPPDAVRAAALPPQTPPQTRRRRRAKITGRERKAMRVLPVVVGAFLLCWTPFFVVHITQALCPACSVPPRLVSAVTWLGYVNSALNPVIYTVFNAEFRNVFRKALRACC

D5 = D5 (Homo sapiens, UniProt P21918); test: Radioligand binding
Sequence of D5 (P21918 whole entry): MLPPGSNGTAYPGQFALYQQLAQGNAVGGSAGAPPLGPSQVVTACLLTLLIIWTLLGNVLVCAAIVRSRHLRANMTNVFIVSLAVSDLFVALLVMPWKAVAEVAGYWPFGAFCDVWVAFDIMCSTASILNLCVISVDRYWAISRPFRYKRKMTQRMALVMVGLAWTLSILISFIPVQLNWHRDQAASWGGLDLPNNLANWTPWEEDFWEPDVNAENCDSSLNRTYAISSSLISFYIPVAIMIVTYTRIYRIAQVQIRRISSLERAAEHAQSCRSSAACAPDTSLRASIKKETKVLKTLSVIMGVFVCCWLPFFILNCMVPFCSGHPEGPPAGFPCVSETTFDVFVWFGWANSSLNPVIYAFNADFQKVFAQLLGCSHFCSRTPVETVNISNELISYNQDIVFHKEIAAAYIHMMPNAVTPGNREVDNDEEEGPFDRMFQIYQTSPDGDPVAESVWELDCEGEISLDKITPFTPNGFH

σ1 = σ1 (Rattus norvegicus, UniProt Q9R0C9); test: Radioligand binding
5-HT5A = 5-HT5A (Homo sapiens, UniProt P47898); test: Radioligand binding
Sequence of 5-HT5A (P47898 whole entry): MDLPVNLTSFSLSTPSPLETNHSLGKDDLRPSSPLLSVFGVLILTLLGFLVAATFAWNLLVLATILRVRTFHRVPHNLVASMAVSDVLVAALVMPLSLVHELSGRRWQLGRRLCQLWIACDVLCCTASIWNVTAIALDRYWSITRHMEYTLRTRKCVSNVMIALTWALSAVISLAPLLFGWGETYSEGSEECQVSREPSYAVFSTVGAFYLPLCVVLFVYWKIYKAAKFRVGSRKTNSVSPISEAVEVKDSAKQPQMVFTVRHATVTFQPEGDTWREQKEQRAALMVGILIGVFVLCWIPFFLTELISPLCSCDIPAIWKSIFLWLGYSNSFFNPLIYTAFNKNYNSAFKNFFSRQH

D2 = D2 (Homo sapiens, UniProt P14416); test: Radioligand binding
Sequence of D2 (P14416 whole entry): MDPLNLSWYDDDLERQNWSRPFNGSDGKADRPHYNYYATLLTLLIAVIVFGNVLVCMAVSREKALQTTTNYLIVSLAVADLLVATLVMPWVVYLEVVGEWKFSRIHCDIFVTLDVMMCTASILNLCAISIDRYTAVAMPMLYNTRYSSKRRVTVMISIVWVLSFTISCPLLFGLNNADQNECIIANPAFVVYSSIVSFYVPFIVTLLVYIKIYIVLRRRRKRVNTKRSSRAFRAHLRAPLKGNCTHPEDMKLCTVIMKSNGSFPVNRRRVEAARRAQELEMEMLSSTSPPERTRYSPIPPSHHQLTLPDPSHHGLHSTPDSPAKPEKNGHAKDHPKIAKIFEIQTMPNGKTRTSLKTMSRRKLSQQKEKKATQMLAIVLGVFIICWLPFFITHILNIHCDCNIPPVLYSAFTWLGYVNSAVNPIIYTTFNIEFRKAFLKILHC

5-HT2A = 5-HT2A (Homo sapiens, UniProt P28223); test: Radioligand binding
Sequence of 5-HT2A (P28223 whole entry): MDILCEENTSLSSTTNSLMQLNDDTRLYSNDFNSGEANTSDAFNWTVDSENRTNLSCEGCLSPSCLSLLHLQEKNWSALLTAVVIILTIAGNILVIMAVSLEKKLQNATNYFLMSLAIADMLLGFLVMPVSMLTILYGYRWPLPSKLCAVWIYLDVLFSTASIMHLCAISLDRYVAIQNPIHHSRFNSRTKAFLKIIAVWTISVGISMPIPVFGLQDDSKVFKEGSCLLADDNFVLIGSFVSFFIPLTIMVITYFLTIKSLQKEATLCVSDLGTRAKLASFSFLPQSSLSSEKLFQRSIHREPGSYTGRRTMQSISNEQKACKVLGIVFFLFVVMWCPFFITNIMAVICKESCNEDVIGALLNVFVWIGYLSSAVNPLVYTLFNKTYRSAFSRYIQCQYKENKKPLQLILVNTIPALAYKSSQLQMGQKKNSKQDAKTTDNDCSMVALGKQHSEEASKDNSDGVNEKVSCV

[3] = ref Oberlender and Nichols, 1991

Compound | Ki (5-HT2C) | Ki (NET) | Ki (D3) | EC50 (SERT [1]) | Ki (β3) | Ki (DAT) | Ki (α2C) | Ki (α2A) | Ki (D1) | Ki (SERT [2]) | Ki (5-HT7) | Ki (5-HT6) | Ki (β1) | Ki (5-HT1D) | Ki (D4) | Ki (D5) | Ki (σ1) | Ki (5-HT5A) | Ki (D2) | Ki (5-HT2A) | other results
COc1cc2c(cc1C)CC(N)C2 (centres unmarked) [MMAI, 5-methoxy-6-methyl-2-aminoindan] | > 10 µM | > 10 µM | > 10 µM | 0.031 ± 0.005 µM | > 10 µM | > 10 µM | 1.38 µM | 0.724 ± 0.477 µM | > 10 µM | 4.82 µM | 1.01 µM | > 10 µM | > 10 µM | 2.56 µM | > 10 µM | > 10 µM | > 10 µM | > 10 µM | > 10 µM | > 10 µM | Emax (SERT [1]): 99%; substitution in (+)-amphetamine-trained rats (rats; ref Johnson et al. 1991b): did not substitute; substitution in rats trained to discriminate MDMA and S-(+)-MBDB (rats; ref Johnson et al. 1991b): fully substituted; fold lower affinity for α2C compared to 2-AI (α2C): 30 fold; fold lower affinity for α2A compared to 2-AI (α2A): 5 fold
NC1Cc2ccccc2C1 [2-AI, 2-aminoindan] | > 10 µM | > 10 µM | > 10 µM | > 10 µM | > 10 µM | > 10 µM | 0.041 ± 0.026 µM | 0.134 ± 0.031 µM | > 10 µM | > 10 µM | > 10 µM | > 10 µM | > 10 µM | > 10 µM | > 10 µM | > 10 µM | > 10 µM | > 10 µM | > 10 µM | > 10 µM | substitution for (+)-amphetamine (rats; ref Glennon et al. 1984): fully substituted; substitution in (+)-amphetamine-trained rats (rats; [3]): partial substitution
COc1ccc2c(c1)CC(N)C2 (centres unmarked) [5-MeO-AI, 5-methoxy-2-aminoindan] | > 10 µM | > 10 µM | > 10 µM | 0.134 ± 0.013 µM | > 10 µM | > 10 µM | 1.22 µM | 0.751 ± 0.338 µM | > 10 µM | > 10 µM | > 10 µM | > 10 µM | > 10 µM | > 10 µM | > 10 µM | > 10 µM | > 10 µM | > 10 µM | > 10 µM | > 10 µM | Emax (SERT [1]): 104%; fold lower affinity for α2C compared to 2-AI (α2C): 30 fold; fold lower affinity for α2A compared to 2-AI (α2A): 5 fold
NC1Cc2cc3c(cc2C1)OCO3 [MDAI, 5,6-methylenedioxy-2-aminoindan] | > 10 µM | > 10 µM | > 10 µM | 0.114 ± 0.015 µM | > 10 µM | > 10 µM | 0.363 ± 0.219 µM | 0.322 ± 0.114 µM | > 10 µM | > 10 µM | > 10 µM | > 10 µM | > 10 µM | > 10 µM | > 10 µM | > 10 µM | > 10 µM | > 10 µM | > 10 µM | > 10 µM | Emax (SERT [1]): 102%; drug-appropriate responding in (+)-methamphetamine-trained rats (rats; ref Gatch et al. 2016): 75%; substitution in cocaine-trained rats (rats; ref Gatch et al. 2016): full substitution; substitution for MDMA and S-(+)-MBDB (rats; ref Nichols et al. 1990, Oberlender and Nichols 1990, Malmusi et al. 1996, Gatch et al. 2016): substituted; substitution in (+)-amphetamine-trained rats (rats; [3]): did not substitute

Source: paper PMC6848746 (Psychopharmacology, 2019)
